From PubChem BioAssay (NCI)
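These data come from cells grown in 96-well plates and exposed to compound for 48 hours at five concentrations. GI50 marks 50% less growth. TGI: concentration producing complete growth inhibition.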

What was measured:
Assay in all cases: inhibition of tumour cell growth, NCI panel, 48 h
786-0 renal = tested on: 786-0 renal
A498 renal = tested on: A498 renal
A549 NSCLC = tested on: A549 NSCLC
ACHN renal = tested on: ACHN renal
BT-549 breast = tested on: BT-549 breast
CAKI-1 renal = tested on: CAKI-1 renal
CCRF-CEM leukemia = tested on: CCRF-CEM leukemia
COLO 205 colon = tested on: COLO 205 colon
DU-145 prostate = tested on: DU-145 prostate
EKVX NSCLC = tested on: EKVX NSCLC
HCC-2998 colon = tested on: HCC-2998 colon
HCT-116 colon = tested on: HCT-116 colon
HCT-15 colon = tested on: HCT-15 colon
HOP-62 NSCLC = tested on: HOP-62 NSCLC
HOP-92 NSCLC = tested on: HOP-92 NSCLC
HS 578T breast = tested on: HS 578T breast
HT29 colon = tested on: HT29 colon
IGROV1 ovarian = tested on: IGROV1 ovarian
K-562 leukemia = tested on: K-562 leukemia
KM12 colon = tested on: KM12 colon
LOX IMVI melanoma = tested on: LOX IMVI melanoma
MALME-3M melanoma = tested on: MALME-3M melanoma
MCF7 breast = tested on: MCF7 breast
MDA-MB-231 breast = tested on: MDA-MB-231 breast
MDA-MB-435 = tested on: MDA-MB-435
MOLT-4 leukemia = tested on: MOLT-4 leukemia
NCI-H226 lung = tested on: NCI-H226 lung
NCI-H23 lung = tested on: NCI-H23 lung
NCI-H460 lung = tested on: NCI-H460 lung
NCI-H522 lung = tested on: NCI-H522 lung
NCI/ADR-RES ovarian = tested on: NCI/ADR-RES ovarian
OVCAR-3 ovarian = tested on: OVCAR-3 ovarian
OVCAR-4 ovarian = tested on: OVCAR-4 ovarian
OVCAR-5 ovarian = tested on: OVCAR-5 ovarian
OVCAR-8 ovarian = tested on: OVCAR-8 ovarian
PC-3 prostate = tested on: PC-3 prostate
RPMI-8226 leukemia = tested on: RPMI-8226 leukemia
RXF 393 renal = tested on: RXF 393 renal
SF-268 CNS = tested on: SF-268 CNS
SF-295 CNS = tested on: SF-295 CNS
SF-539 CNS = tested on: SF-539 CNS
SK-MEL-2 melanoma = tested on: SK-MEL-2 melanoma
SK-MEL-28 melanoma = tested on: SK-MEL-28 melanoma
SK-MEL-5 melanoma = tested on: SK-MEL-5 melanoma
SK-OV-3 ovarian = tested on: SK-OV-3 ovarian
SN12C renal = tested on: SN12C renal
SNB-19 CNS = tested on: SNB-19 CNS
SNB-75 CNS = tested on: SNB-75 CNS
SR leukemia = tested on: SR leukemia
SW-620 colon = tested on: SW-620 colon
T-47D breast = tested on: T-47D breast
TK-10 renal = tested on: TK-10 renal
U251 CNS = tested on: U251 CNS
UACC-257 melanoma = tested on: UACC-257 melanoma
UACC-62 melanoma = tested on: UACC-62 melanoma
UO-31 renal = tested on: UO-31 renal
HL-60(TB) leukemia = tested on: HL-60(TB) leukemia
M14 melanoma = tested on: M14 melanoma

In the case of `OCCCCC#Cc1ccccc1C#Cc1ccccn1`, the GI50 (786-0 renal) is reported as 38.3 µM, the TGI (786-0 renal) is reported as > 100 µM and the GI50 (A498 renal) is reported as 8.99 µM. For the same compound, the TGI (A498 renal) was 49.7 µM, the GI50 (A549 NSCLC) was 33.6 µM and the TGI (A549 NSCLC) was > 100 µM. For the same compound, the GI50 (ACHN renal) was 31.8 µM, the TGI (ACHN renal) was > 100 µM and the GI50 (BT-549 breast) was 15.8 µM. The TGI (BT-549 breast) was 47.4 µM, the GI50 (CAKI-1 renal) was 28.6 µM and the TGI (CAKI-1 renal) was > 100 µM. For the same compound, the GI50 (CCRF-CEM leukemia) was 31.4 µM, the TGI (CCRF-CEM leukemia) was > 100 µM and the GI50 (COLO 205 colon) was 31.1 µM. The TGI (COLO 205 colon) was > 100 µM, the GI50 (DU-145 prostate) was 9.78 µM and the TGI (DU-145 prostate) was 74.6 µM. For the same compound, the GI50 (EKVX NSCLC) was 27.7 µM, the TGI (EKVX NSCLC) was 67 µM and the GI50 (HCC-2998 colon) was 26.4 µM. For the same compound, the TGI (HCC-2998 colon) was 72.9 µM, the GI50 (HCT-116 colon) was 30.8 µM and the TGI (HCT-116 colon) was > 100 µM. The GI50 (HCT-15 colon) was 29.8 µM, the TGI (HCT-15 colon) was > 100 µM and the GI50 (HOP-62 NSCLC) was 29.4 µM. The TGI (HOP-62 NSCLC) was > 100 µM, the GI50 (HOP-92 NSCLC) was 26.6 µM and the TGI (HOP-92 NSCLC) was 94.6 µM. For the same compound, the GI50 (HS 578T breast) was 25.6 µM, the TGI (HS 578T breast) was 88.3 µM and the GI50 (HT29 colon) was 26.1 µM. For the same compound, the TGI (HT29 colon) was > 100 µM, the GI50 (IGROV1 ovarian) was 27.2 µM and the TGI (IGROV1 ovarian) was > 100 µM. The GI50 (K-562 leukemia) was 29 µM, the TGI (K-562 leukemia) was > 100 µM and the GI50 (KM12 colon) was 29.7 µM. For the same compound, the TGI (KM12 colon) was > 100 µM, the GI50 (LOX IMVI melanoma) was 27.7 µM and the TGI (LOX IMVI melanoma) was > 100 µM. For the same compound, the GI50 (MALME-3M melanoma) was 27.1 µM, the TGI (MALME-3M melanoma) was > 100 µM and the GI50 (MCF7 breast) was 37.8 µM. For the same compound, the TGI (MCF7 breast) was > 100 µM, the GI50 (MDA-MB-231 breast) was 21 µM and the TGI (MDA-MB-231 breast) was 64.9 µM. For the same compound, the GI50 (MDA-MB-435) was 25.1 µM, the TGI (MDA-MB-435) was 79.4 µM and the GI50 (MOLT-4 leukemia) was 21.4 µM. For the same compound, the TGI (MOLT-4 leukemia) was > 100 µM, the GI50 (NCI-H226 lung) was 31.3 µM and the TGI (NCI-H226 lung) was > 100 µM. For the same compound, the GI50 (NCI-H23 lung) was 25.2 µM, the TGI (NCI-H23 lung) was > 100 µM and the GI50 (NCI-H460 lung) was 24.8 µM. The TGI (NCI-H460 lung) was 76.4 µM, the GI50 (NCI-H522 lung) was 22.2 µM and the TGI (NCI-H522 lung) was 56 µM. For the same compound, the GI50 (NCI/ADR-RES ovarian) was 27.3 µM, the TGI (NCI/ADR-RES ovarian) was 77.4 µM and the GI50 (OVCAR-3 ovarian) was 26.1 µM. For the same compound, the TGI (OVCAR-3 ovarian) was 77.3 µM, the GI50 (OVCAR-4 ovarian) was 30.3 µM and the TGI (OVCAR-4 ovarian) was > 100 µM. For the same compound, the GI50 (OVCAR-5 ovarian) was > 100 µM, the TGI (OVCAR-5 ovarian) was > 100 µM and the GI50 (OVCAR-8 ovarian) was 32.4 µM. The TGI (OVCAR-8 ovarian) was > 100 µM, the GI50 (PC-3 prostate) was 24.6 µM and the TGI (PC-3 prostate) was 73.9 µM. It also gave a GI50 (RPMI-8226 leukemia) of 16.4 µM, a TGI (RPMI-8226 leukemia) of 37.4 µM and a GI50 (RXF 393 renal) of 25 µM. The TGI (RXF 393 renal) was 62.3 µM, the GI50 (SF-268 CNS) was 29.8 µM and the TGI (SF-268 CNS) was > 100 µM. The GI50 (SF-295 CNS) was 21.8 µM, the TGI (SF-295 CNS) was 65.2 µM and the GI50 (SF-539 CNS) was 17.8 µM. For the same compound, the TGI (SF-539 CNS) was 42.7 µM, the GI50 (SK-MEL-2 melanoma) was 41.6 µM and the TGI (SK-MEL-2 melanoma) was > 100 µM. The GI50 (SK-MEL-28 melanoma) was 31 µM, the TGI (SK-MEL-28 melanoma) was > 100 µM and the GI50 (SK-MEL-5 melanoma) was 19.1 µM. For the same compound, the TGI (SK-MEL-5 melanoma) was 41.4 µM, the GI50 (SK-OV-3 ovarian) was > 100 µM and the TGI (SK-OV-3 ovarian) was > 100 µM. The GI50 (SN12C renal) was 32.1 µM, the TGI (SN12C renal) was > 100 µM and the GI50 (SNB-19 CNS) was 42.1 µM. The TGI (SNB-19 CNS) was > 100 µM, the GI50 (SNB-75 CNS) was 14.9 µM and the TGI (SNB-75 CNS) was 51.5 µM. It also gave a GI50 (SR leukemia) of 25.5 µM, a TGI (SR leukemia) of 96.2 µM and a GI50 (SW-620 colon) of 45.7 µM. For the same compound, the TGI (SW-620 colon) was > 100 µM, the GI50 (T-47D breast) was 15.9 µM and the TGI (T-47D breast) was 80.6 µM. For the same compound, the GI50 (TK-10 renal) was 61 µM, the TGI (TK-10 renal) was > 100 µM and the GI50 (U251 CNS) was 31.2 µM. The TGI (U251 CNS) was > 100 µM, the GI50 (UACC-257 melanoma) was 28.8 µM and the TGI (UACC-257 melanoma) was 87.2 µM. The GI50 (UACC-62 melanoma) was 23.1 µM, the TGI (UACC-62 melanoma) was > 100 µM and the GI50 (UO-31 renal) was 32.3 µM. The TGI (UO-31 renal) was > 100 µM.

In the case of `CC(=O)OC1CN2CCC1CC2` (centres undefined), the TGI (786-0 renal) is reported as > 100 µM, the TGI (A498 renal) is reported as > 100 µM and the TGI (A549 NSCLC) is reported as > 100 µM. For the same compound, the TGI (ACHN renal) was > 100 µM, the TGI (BT-549 breast) was > 100 µM and the TGI (CAKI-1 renal) was > 100 µM. For the same compound, the TGI (CCRF-CEM leukemia) was > 100 µM, the TGI (COLO 205 colon) was > 100 µM and the TGI (DU-145 prostate) was > 100 µM. For the same compound, the TGI (EKVX NSCLC) was > 100 µM, the TGI (HCC-2998 colon) was > 100 µM and the TGI (HCT-116 colon) was > 100 µM. The TGI (HCT-15 colon) was > 100 µM, the TGI (HL-60(TB) leukemia) was > 100 µM and the TGI (HOP-62 NSCLC) was > 100 µM. For the same compound, the TGI (HOP-92 NSCLC) was > 100 µM, the TGI (HS 578T breast) was > 100 µM and the TGI (HT29 colon) was > 100 µM. For the same compound, the TGI (IGROV1 ovarian) was > 100 µM, the TGI (K-562 leukemia) was > 100 µM and the TGI (KM12 colon) was > 100 µM. The TGI (LOX IMVI melanoma) was > 100 µM, the TGI (M14 melanoma) was > 100 µM and the TGI (MALME-3M melanoma) was > 100 µM. The TGI (MCF7 breast) was > 100 µM, the TGI (MDA-MB-231 breast) was > 100 µM and the TGI (MDA-MB-435) was > 100 µM. For the same compound, the TGI (MOLT-4 leukemia) was > 100 µM, the TGI (NCI-H226 lung) was > 100 µM and the TGI (NCI-H23 lung) was > 100 µM. The TGI (NCI-H460 lung) was > 100 µM, the TGI (NCI-H522 lung) was > 100 µM and the TGI (NCI/ADR-RES ovarian) was > 100 µM. The TGI (OVCAR-3 ovarian) was > 100 µM, the TGI (OVCAR-4 ovarian) was > 100 µM and the TGI (OVCAR-5 ovarian) was > 100 µM. For the same compound, the TGI (OVCAR-8 ovarian) was > 100 µM, the TGI (PC-3 prostate) was > 100 µM and the TGI (RPMI-8226 leukemia) was > 100 µM. The TGI (RXF 393 renal) was > 100 µM, the TGI (SF-268 CNS) was > 100 µM and the TGI (SF-295 CNS) was > 100 µM. The TGI (SF-539 CNS) was > 100 µM, the TGI (SK-MEL-2 melanoma) was > 100 µM and the TGI (SK-MEL-28 melanoma) was > 100 µM. The TGI (SK-MEL-5 melanoma) was > 100 µM, the TGI (SK-OV-3 ovarian) was > 100 µM and the TGI (SN12C renal) was > 100 µM. The TGI (SNB-19 CNS) was > 100 µM, the TGI (SR leukemia) was > 100 µM and the TGI (SW-620 colon) was > 100 µM. For the same compound, the TGI (T-47D breast) was > 100 µM, the TGI (TK-10 renal) was > 100 µM and the TGI (U251 CNS) was > 100 µM. For the same compound, the TGI (UACC-257 melanoma) was > 100 µM, the TGI (UACC-62 melanoma) was > 100 µM and the TGI (UO-31 renal) was > 100 µM.
